Measured values from patent publication US20100197604A1, “USE OF PEPTIDE AS A THERAPEUTIC AGENT” (priority 2007, published 2010).

Columns and labels:
HepG2-2.2.15 cells = experiment: Cytotoxicity in HepG2-2.2.15 cells (dye uptake); conditions: test peptide 10 micrograms per ml
HIV-1IIIB = experiment: HIV-1 antiviral assay (CPE reduction, MTS); type: cell-based; conditions: peptide 10 micrograms per ml, 6 days post-infection
CEM-SS cells = experiment: Cytotoxicity in CEM-SS cells (MTS cell viability); conditions: peptide 10 micrograms per ml
[1] = system: MRC-5 cells (human embryonal lung fibroblasts); conditions: 6 days
Pseudomonas aeruginosa = type: cell-based; conditions: 5 micrograms per ml
MRSA = conditions: 5 micrograms per ml
Streptococcus pneumoniae = type: cell-based; conditions: 5 micrograms per ml

Structure (SMILES): Nc1ccn([C@@H]2CS[C@H](CO)O2)c(=O)n1 [Compound 3TC, Lamivudine]
- % Cell viability (HepG2-2.2.15 cells): 95.8%

Structure (SMILES): Cc1cn([C@H]2C[C@H](N=[N+]=[N-])[C@@H](CO)O2)c(=O)[nH]c1=O [AZT]
- % CPE reduction in HIV-1 infected CEM-SS cells (HIV-1IIIB): 99%
- % Cell viability (CEM-SS cells): 97%

Structure (SMILES): Nc1nc(O)c2ncn(COC(CO)CO)c2n1 [Ganciclovir]
- % Cell viability [1]: 100%

Structure (SMILES): CC[C@H](C)[C@H](NC(=O)[C@H](Cc1ccc(O)cc1)NC(=O)[C@@H](NC(=O)[C@H](CCCNC(=N)N)NC(=O)[C@@H](N)CC(=O)O)C(C)C)C(=O)N[C@@H](Cc1c[nH]cn1)C(=O)N1CCC[C@H]1C(=O)N[C@@H](Cc1ccccc1)C(=O)O [Angiotensin II]
- % inhibition (Pseudomonas aeruginosa): 0.0%
- % inhibition (MRSA): 0.0%
- % inhibition (Streptococcus pneumoniae): 100.0%
